Measurements published in patent publication US20230373937A1, “INHIBITORS OF SPINSTER HOMOLOG 2 (SPNS2) FOR USE IN THERAPY” (University of Virginia Patent Foundation, priority 2020, published 2023).
Counter-ions that a name gives are not always drawn.

molecular target: T1, SPNS2 (Mus musculus, UniProt Q91VM4); assay: S1P transporter assay: S1P release from whole cells expressing SPNS2; format: cell-based; conditions: HeLa or U937 cells expressing mouse SPNS2; 18 hours; S1P in media measured by LC-MS; read-out: IC50 (in vitro inhibition against SPNS2)
T1 construct: expressed in transfected cells; host or cells: HeLa or U937 cells
T1 sequence (Q91VM4 1-549): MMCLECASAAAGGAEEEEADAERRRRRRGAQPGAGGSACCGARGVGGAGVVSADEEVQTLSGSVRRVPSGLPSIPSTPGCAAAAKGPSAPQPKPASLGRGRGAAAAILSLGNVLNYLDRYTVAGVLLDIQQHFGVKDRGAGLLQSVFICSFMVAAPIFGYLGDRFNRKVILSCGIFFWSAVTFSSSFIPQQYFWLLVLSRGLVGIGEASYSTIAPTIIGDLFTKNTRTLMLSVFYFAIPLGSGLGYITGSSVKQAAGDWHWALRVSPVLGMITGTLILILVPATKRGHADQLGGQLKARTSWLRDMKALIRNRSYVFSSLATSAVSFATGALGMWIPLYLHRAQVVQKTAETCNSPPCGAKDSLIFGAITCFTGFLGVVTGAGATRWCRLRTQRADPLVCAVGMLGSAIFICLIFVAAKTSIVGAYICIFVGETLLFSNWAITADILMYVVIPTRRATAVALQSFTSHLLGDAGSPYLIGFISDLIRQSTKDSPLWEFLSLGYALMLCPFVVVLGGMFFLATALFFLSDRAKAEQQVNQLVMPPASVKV
Protocol: Transporter assays are vectorial and therefore require measurement of the transported analyte in different compartments. The S1P transporter SPNS2 only exports S1P, which obviates measuring uptake of S1P into transporter-expressing cells. Thus, transporter activity was determined by quantifying S1P release from whole cells expressing SPNS2. SPNS2 inhibitor potency was assessed using whole cell assays. HeLa or U937 cells expressing mouse SPNS2 were used to determine inhibitor potency (IC50). Cells were plated onto 12 well plates and assayed when the cell monolayers became confluent. Cell growth media (RPMI-1640 containing 10% fetal bovine serum) was replaced with 2 mL of serum-free media (RPMI-1640) containing fatty acid free bovine serum albumin (BSA) (0.2% w/v) and supplemented with 4-deoxypyridoxine (DOP) (1 mM), NaF (2 mM), Na3VO4 (0.2 mM) to inhibit S1P degradation. Test articles (1×10-9-1×10^-4 M) were assayed in duplicate or triplicate. After 18 hours, media was collected, an internal recovery standard (0.005 mL of 5×10^-7 M deuterated (d7) S1P in methanol) was added, the BSA was precipitated with trichloroacetic acid and the bound S1P extracted with methanol. S1P and S1P-d7 were measured by liquid chromatography mass spectrometry. Inhibitor potency at the human SPNS2 ortholog was determined by an analogous assay using U-937 cells, which endogenously express human SPNS2.

Question: Which IC50 does the source give for `CCCCCCCCCCc1ccc(-c2noc(C(Cl)CCN)n2)cc1` (racemic) [Compound 5k, (±)-3-chloro-3-(3-(4-decylphenyl)-1,2,4-oxadiazol-5-yl)propan-1-amine hydrochloride] here?
Answer: > 2000 nM

Question: Which IC50 does the source give for `CCCCCCCCCCc1ccc(-c2noc([C@H]3CCC[C@@H](N)C3)n2)cc1` (racemic) [Compound 5p, (f)-cis-3-(3-(4-decylphenyl)-1,2,4-oxadiazol-5-yl)cyclohexan-1-amine hydrochloride] here?
Answer: > 2000 nM

Question: For `CCCCCCCCCCc1ccc(-c2noc([C@@H]3CCC[C@@H](N)C3)n2)cc1` (racemic) [Compound 5q, (±)-trans-3-(3-(4-decylphenyl)-1,2,4-oxadiazol-5-yl)cyclohexan-1-amine hydrochloride], which IC50 is on record?
Answer: > 2000 nM

Question: `CCCCCCCCCCc1ccc(-c2noc(C3CCNCC3)n2)cc1` [Compound 5a, 3-(4-decylphenyl)-5-(piperidin-4-yl)-1,2,4-oxadiazole 2,2,2-trifluoroacetate] was tested. Which IC50 did it give?
Answer: > 2000 nM

Question: Which IC50 does the source give for `CCCCCCCCCCc1ccc(-c2noc(CCN)n2)cc1` [Compound 5b, 2-(3-(4-decylphenyl)-1,2,4-oxadiazol-5-yl)ethan-1-amine 2,2,2-trifluoroacetate] here?
Answer: ≤ 2000 nM

Question: How did the IC50 turn out when `CCCCCCCCCCc1ccc(-c2noc(C[C@H](C)N)n2)cc1` [Compound 5c, (S)-1-(3-(4-decylphenyl)-1,2,4-oxadiazol-5-yl)propan-2-amine 2,2,2-trifluoroacetate] was run?
Answer: > 2000 nM

Question: With `CCCCCCCCCCc1ccc(-c2noc([C@@H]3CC[C@H](N)C3)n2)cc1` [Compound 5d, (1S,3R)-3-(3-(4-decylphenyl)-1,2,4-oxadiazol-5-yl)cyclopentan-1-amine hydrochloride] as the compound, how does the IC50 read?
Answer: > 2000 nM

Question: How did the IC50 turn out when `CCCCCCCCCCc1ccc(-c2noc(CCCN)n2)cc1` [Compound 5e, 3-(3-(4-decylphenyl)-1,2,4-oxadiazol-5-yl)propan-1-amine 2,2,2-trifluoroacetate] was run?
Answer: ≤ 2000 nM

Question: How did the IC50 turn out when `CCCCCCCCCCc1ccc(-c2noc(CN)n2)cc1` [Compound 5f, (3-(4-decylphenyl)-1,2,4-oxadiazol-5-yl)methanamine 2,2,2-trifluoroacetate] was run?
Answer: ≤ 2000 nM

Question: For `CCCCCCCCCCc1ccc(-c2noc(CC(O)CN)n2)cc1` (centres unmarked) [Compound 5g, 1-amino-3-(3-(4-decylphenyl)-1,2,4-oxadiazol-5-yl)propan-2-ol hydrochloride], which IC50 is on record?
Answer: > 2000 nM

Question: With `CCCCCCCCCCc1ccc(-c2noc(CN3CCNCC3)n2)cc1` [Compound 5h, 3-(4-decylphenyl)-5-(piperazin-1-ylmethyl)-1,2,4-oxadiazole 2,2,2-trifluoroacetate] as the compound, how does the IC50 read?
Answer: ≤ 2000 nM

Question: `NCCCc1nc(-c2ccc(OCc3ccccc3)cc2)no1` [Compound 5i, 3-(3-(4-(benzyloxy)phenyl)-1,2,4-oxadiazol-5-yl)propan-1-amine hydrochloride] was tested. Which IC50 did it give?
Answer: > 2000 nM

Question: How did the IC50 turn out when `CCCCCCCCCCc1cccc(-c2noc(CCCN)n2)c1` [Compound 5j, 3-(3-(3-decylphenyl)-1,2,4-oxadiazol-5-yl)propan-1-amine hydrochloride] was run?
Answer: ≤ 2000 nM

Question: For `CCCCCCCCCCc1ccc(-c2noc(CCCN(C)C)n2)cc1` [Compound 5l, 3-(3-(4-decylphenyl)-1,2,4-oxadiazol-5-yl)-N,N-dimethylpropan-1-amine hydrochloride], which IC50 is on record?
Answer: > 2000 nM

Question: `CCCCCCCCCCc1ccc(-c2noc(CCCNC)n2)cc1` [Compound 5m, 3-(3-(4-decylphenyl)-1,2,4-oxadiazol-5-yl)-N-methylpropan-1-amine hydrochloride] was tested. Which IC50 did it give?
Answer: > 2000 nM

Question: With `CCCCCCCCCCc1ccc(-c2noc(CC(CN)OC(C)=O)n2)cc1` (centres unmarked) [Compound 5n, 1-amino-3-(3-(4-decylphenyl)-1,2,4-oxadiazol-5-yl)propan-2-yl acetate hydrochloride] as the compound, how does the IC50 read?
Answer: > 2000 nM

Question: `CCCCCCCCCc1ccc(Cc2noc(CCCN)n2)cc1` [Compound 5r, 3-(3-(4-nonylbenzyl)-1,2,4-oxadiazol-5-yl)propan-1-amine hydrochloride] was tested. Which IC50 did it give?
Answer: > 2000 nM

Question: Which IC50 does the source give for `CCCCCCCCc1ccc(CCc2noc(CCCN)n2)cc1` [Compound 5s, 3-(3-(4-octylphenethyl)-1,2,4-oxadiazol-5-yl)propan-1-amine hydrochloride] here?
Answer: > 2000 nM

Question: Which IC50 does the source give for `CCCCCCCCCOc1ccc(-c2noc(CCCN)n2)cc1` [Compound 5t, 3-(3-(4-(nonyloxy)phenyl)-1,2,4-oxadiazol-5-yl)propan-1-amine hydrochloride] here?
Answer: > 2000 nM

Question: How did the IC50 turn out when `CCCCCCCCCOc1ccc(-c2noc(CCCN)n2)cc1C(F)(F)F` [Compound 5u, 3-(3-(4-(nonyloxy)-3-(trifluoromethyl)phenyl)-1,2,4-oxadiazol-5-yl)propan-1-amine hydrochloride] was run?
Answer: > 2000 nM

Question: Which IC50 does the source give for `CCCCCCCCCOc1ccc(-c2noc(CCCN)n2)cc1F` [Compound 5v, 3-(3-(3-fluoro-4-(nonyloxy)phenyl)-1,2,4-oxadiazol-5-yl)propan-1-amine hydrochloride] here?
Answer: ≤ 2000 nM

Question: With `CCCCCCCOc1ccc2cc(-c3noc(CCCN)n3)ccc2c1` [Compound 5w, 3-(3-(6-(heptyloxy)naphthalen-2-yl)-1,2,4-oxadiazol-5-yl)propan-1-amine hydrochloride] as the compound, how does the IC50 read?
Answer: ≤ 2000 nM

Question: With `CCCCCCCOc1ccc2cc(-c3noc([C@@H]4CCNC4)n3)ccc2c1` [Compound 5x, (R)-3-(6-(heptyloxy)naphthalen-2-yl)-5-(pyrrolidin-3-yl)-1,2,4-oxadiazole hydrochloride] as the compound, how does the IC50 read?
Answer: > 2000 nM

Question: `CCCCCCCCCCc1ccc(-c2noc(CC[C@@H](N)C(=O)O)n2)cc1` [Compound 5y, (R)-2-amino-4-(3-(4-decylphenyl)-1,2,4-oxadiazol-5-yl)butanoic acid hydrochloride] was tested. Which IC50 did it give?
Answer: > 2000 nM

Question: How did the IC50 turn out when `CCCCCCCCCCc1ccc(-c2noc(CC(O)CN3CCCCC3)n2)cc1` (centres unmarked) [Compound 6a, 1-(3-(4-decylphenyl)-1,2,4-oxadiazol-5-yl)-3-(piperidin-1-yl)propan-2-ol hydrochloride] was run?
Answer: > 2000 nM

Question: `CCCCCCCCCCc1ccc(-c2noc(CC(O)CN3CCCC3)n2)cc1` (centres unmarked) [Compound 6b, 1-(3-(4-decylphenyl)-1,2,4-oxadiazol-5-yl)-3-(pyrrolidin-1-yl)propan-2-ol hydrochloride] was tested. Which IC50 did it give?
Answer: > 2000 nM

Question: How did the IC50 turn out when `CCCCCCCCCCc1ccc(-c2noc(CC(O)CN3CCOCC3)n2)cc1` (centres unmarked) [Compound 6c, 1-(3-(4-decylphenyl)-1,2,4-oxadiazol-5-yl)-3-morpholinopropan-2-ol hydrochloride] was run?
Answer: > 2000 nM

Question: Which IC50 does the source give for `CCCCCCCCCCc1ccc(-c2noc(CCCN3CCCC3)n2)cc1` [Compound 6d, 3-(4-decylphenyl)-5-(3-(pyrrolidin-1-yl)propyl)-1,2,4-oxadiazole hydrochloride] here?
Answer: > 2000 nM

Question: `CCCCCCCCCCc1ccc(-c2noc(CCCN3CCCCC3)n2)cc1` [Compound 6e, 3-(4-decylphenyl)-5-(3-(piperidin-1-yl)propyl)-1,2,4-oxadiazole hydrochloride] was tested. Which IC50 did it give?
Answer: > 2000 nM

Question: How did the IC50 turn out when `CCCCCCCCCCc1ccc(-c2noc(CCCN3CCOCC3)n2)cc1` [Compound 6f, 4-(3-(3-(4-decylphenyl)-1,2,4-oxadiazol-5-yl)propyl)morpholine hydrochloride] was run?
Answer: > 2000 nM

Question: Which IC50 does the source give for `CCCCCCCCCCc1ccc(-c2noc(CC(O)CNCC)n2)cc1` (centres unmarked) [Compound 7a, 1-(3-(4-decylphenyl)-1,2,4-oxadiazol-5-yl)-3-(ethylamino)propan-2-ol hydrochloride] here?
Answer: > 2000 nM

Question: How did the IC50 turn out when `CCCCCCCCCCc1ccc(-c2noc(CC(O)CN(C)C)n2)cc1` (centres unmarked) [Compound 7b, 1-(3-(4-decylphenyl)-1,2,4-oxadiazol-5-yl)-3-(dimethylamino)propan-2-ol hydrochloride] was run?
Answer: > 2000 nM

Question: Which IC50 does the source give for `CCCCCCCCCCc1ccc(-c2noc(CNC(=O)[C@H](C)N)n2)cc1` [Compound 9a, (S)-2-amino-N-((3-(4-decylphenyl)-1,2,4-oxadiazol-5-yl)methyl)propanamide hydrochloride] here?
Answer: ≤ 2000 nM

Question: `CCCCCCCCCCc1ccc(-c2noc(CNC(=O)[C@@H](N)CCCC(=O)OC)n2)cc1` [Compound 9aa, methyl (S)-5-amino-6-(((3-(4-decylphenyl)-1,2,4-oxadiazol-5-yl)methyl)amino)-6-oxohexanoate hydrochloride] was tested. Which IC50 did it give?
Answer: ≤ 2000 nM

Question: How did the IC50 turn out when `CCCCCCCCCCc1ccc(-c2noc(CNC(=O)CN(C)C)n2)cc1` [Compound 9ab, N-((3-(4-decylphenyl)-1,2,4-oxadiazol-5-yl)methyl)-2-(dimethylamino)acetamide hydrochloride] was run?
Answer: > 2000 nM
